Measured values as given in US12102648B2, “Orally-bioavailable nucleoside analogs” (priority 2021, dated 2024).
Read-outs that look alike come from different tables or passages of the source.

Experiment: in vitro
Type: in vitro ADME
Conditions: human
Outline: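 Caco-2 monolayers cultured 19 days on inserts (TEER >600 […]); bidirectional A-to-B and B-to-A transport at 37° C over 90 min, samples quantified by LC/MS/MS. Papp, efflux ratio and recovery calculated; ER >2 flags potential efflux substrates.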

| SMILES | Papp A→B at 90 min (Caco-2) | Papp B→A at 90 min (Caco-2) | efflux ratio at 90 min (Caco-2) | Papp A→B at 90 min (Caco-2 monolayer, apical to basolateral, 90-minute incubation, read-out: Papp, A-B) | Papp B→A at 90 min (Caco-2 monolayer, basolateral to apical, 90-minute incubation, read-out: Papp, B-A) | efflux ratio at 90 min (Caco-2 monolayer, ER>2 indicates potential efflux transporter substrate, read-out: ER (efflux ratio)) |
| --- | --- | --- | --- | --- | --- | --- |
| CCCCC(=O)Nc1ncnn2c([C@]3(C#N)O[C@H](COC(=O)CC)[C@@H](O)[C@H]3O)ccc12 [Compound 282, ((2R,3S,4R,5R)-5-cyano-3,4-dihydroxy-5-(4-pentanamidopyrrolo[2,1-f][1,2,4]triazin-7-yl)tetrahydrofuran-2-yl)methyl propionate] | – | – | – | 0.72 ×10⁻⁶ cm/s | 4.1 ×10⁻⁶ cm/s | 5.6 |
| CCCCC(=O)Nc1ncnn2c([C@]3(C#N)O[C@H](COC(=O)CC(C)C)[C@@H](O)[C@H]3O)ccc12 [Compound 283, ((2R,3S,4R,5R)-5-cyano-3,4-dihydroxy-5-(4-pentanamidopyrrolo[2,1-f][1,2,4]triazin-7-yl)tetrahydrofuran-2-yl)methyl 3-methylbutanoate] | 3 ×10⁻⁶ cm/s | 1 ×10⁻⁶ cm/s | 0.34 | – | – | – |
| N#C[C@@]1(c2ccc3c(N)ncnn23)O[C@H](COC(=O)CC2(N)CCCCC2)[C@@H](O)[C@H]1O [Compound 286, ((2R,3S,4R,5R)-5-(4-aminopyrrolo[2,1-f][1,2,4]triazin-7-yl)-5-cyano-3,4-dihydroxytetrahydrofuran-2-yl)methyl 2-(1-aminocyclohexyl)acetate] | 0.01 ×10⁻⁶ cm/s | 0.4 ×10⁻⁶ cm/s | 67 | – | – | – |
| COC1(CC(=O)OC[C@H]2O[C@@](C#N)(c3ccc4c(N)ncnn34)[C@H](O)[C@@H]2O)CCCCC1 [Compound 287, ((2R,3S,4R,5R)-5-(4-aminopyrrolo[2,1-f][1,2,4]triazin-7-yl)-5-cyano-3,4-dihydroxytetrahydrofuran-2-yl)methyl 2-(1-methoxycyclohexyl)acetate] | 5.2 ×10⁻⁶ cm/s | 13 ×10⁻⁶ cm/s | 2.4 | – | – | – |
| CCCCC(=O)Nc1ncnn2c([C@]3(C#N)O[C@H](COC(C)=O)[C@@H](O)[C@H]3O)ccc12 [Compound 288, ((2R,3S,4R,5R)-5-cyano-3,4-dihydroxy-5-(4-pentanamidopyrrolo[2,1-f][1,2,4]triazin-7-yl)tetrahydrofuran-2-yl)methyl acetate] | 0.91 ×10⁻⁶ cm/s | 6.9 ×10⁻⁶ cm/s | 7.7 | – | – | – |

The remaining lines, values ahead:

| Papp A→B at 90 min (Caco-2) | Papp B→A at 90 min (Caco-2) | efflux ratio at 90 min (Caco-2) | Papp A→B at 90 min (Caco-2 monolayer, apical to basolateral, 90-minute incubation, read-out: Papp, A-B) | Papp B→A at 90 min (Caco-2 monolayer, basolateral to apical, 90-minute incubation, read-out: Papp, B-A) | efflux ratio at 90 min (Caco-2 monolayer, ER>2 indicates potential efflux transporter substrate, read-out: ER (efflux ratio)) | SMILES |
| --- | --- | --- | --- | --- | --- | --- |
| 13 ×10⁻⁶ cm/s | 29 ×10⁻⁶ cm/s | 2.3 | – | – | – | C[C@H](C(=O)OC[C@H]1O[C@@](C#N)(c2ccc3c(N)ncnn23)[C@H](O)[C@@H]1O)C1CCCCC1 [Compound 281, ((2R,3S,4R,5R)-5-(4-aminopyrrolo[2,1-f][1,2,4]triazin-7-yl)-5-cyano-3,4-dihydroxytetrahydrofuran-2-yl)methyl (S)-2-cyclohexylpropanoate] |
| 1.7 ×10⁻⁶ cm/s | 0.95 ×10⁻⁶ cm/s | 0.56 | – | – | – | CCCCC(=O)Nc1ncnn2c([C@]3(C#N)O[C@H](COC(=O)CC4CCCCC4)[C@@H](O)[C@H]3O)ccc12 [Compound 284, ((2R,3S,4R,5R)-5-cyano-3,4-dihydroxy-5-(4-pentanamidopyrrolo[2,1-f][1,2,4]triazin-7-yl)tetrahydrofuran-2-yl)methyl 2-cyclohexylacetate] |
| 1.1 ×10⁻⁶ cm/s | 0.9 ×10⁻⁶ cm/s | 0.83 | – | – | – | N#C[C@@]1(c2ccc3c(NC(=O)c4ccccc4)ncnn23)O[C@H](COC(=O)CC2CCCCC2)[C@@H](O)[C@H]1O [Compound 285, ((2R,3S,4R,5R)-5-(4-benzamidopyrrolo[2,1-f][1,2,4]triazin-7-yl)-5-cyano-3,4-dihydroxytetrahydrofuran-2-yl)methyl 2-cyclohexylacetate] |
| 6.4 ×10⁻⁶ cm/s | 25 ×10⁻⁶ cm/s | 3.8 | – | – | – | N#C[C@@]1(c2ccc3c(N)ncnn23)O[C@H](COC(=O)C2(c3ccccc3)CC2)[C@@H](O)[C@H]1O [Compound 289, ((2R,3S,4R,5R)-5-(4-aminopyrrolo[2,1-f][1,2,4]triazin-7-yl)-5-cyano-3,4-dihydroxytetrahydrofuran-2-yl)methyl 1-phenylcyclopropane-1-carboxylate] |
